Assay results reported in patent publication US7563789B2, “1-Adamantyl chalcones for the treatment of proliferative disorders” (priority 2002, dated 2009).
Like-named read-outs stand apart in the source and are kept apart here.

Tests used:
[1] = system: MCF-7 (ER-positive) human breast cancer cell line; assay: cells
Experimental: 1. A dose response curve for compounds, series I, II, III, IV, over a concentration range of 1 mM to 1 nM was prepared in order to detect the doses where possible biological activity might exist. Biological activity was determined by relative LC50 values of these agents.
(§1) 2. The compounds in series I, II, III, and IV were examined against two different types of breast cancer cell lines which included estrogen receptor positive (MCF-7) and estrogen receptor negative (MDA-MB435) cell lines.
(§2) 3. Toxicity of the compounds for normal breast epithelial cells were examined by comparing LC50 values in normal breast epithelial cell line (MCF-10) against LC50 values in cancer cell lines. LC50 is the concentration that is lethal to 50 percent of the cells. LC50 values were estimated from a dose response graph.
(§3) Two human breast cancers cell lines (MCF-7 and MDA-MB435) and a normal breast epithelial cell line (MCF-10) were obtained from ATCC (American Type Culture Collection) to test against the series of compounds and the data were examined for the compounds' relative antiproliferation profiles. All of these cell lines were derived from epithelial tissue. These cell lines were selected because they allowed our laboratory to investigate the effects of the compounds in: 1) breast neoplasms whose growth is stimulated by the presence of estrogen, MCF-7 (ER-positive); 2) Breast neoplasms whose growth is not stimulated by estrogen MDA-MB435 (ER-negative); and 3) A non-cancer cell line (MCF-10) to compare relative toxicities of the compounds.

[2] = system: MDA-MB435 (ER-negative) human breast cancer cell line; assay: Dose response / cell viability (LC50) in MDA-MB435 breast cancer cells
Experimental: 1. […] Biological activity was determined by relative LC50 values of these agents.
as §1, §2, §3

[3] = system: normal breast epithelial cell line MCF-10; assay: Toxicity for normal breast epithelial cells; assay type: cell-based; details: MCF-10 cells; highest concentration tested (1 mM); average values
Experimental: 3. […] LC50 values were estimated from a dose response graph.
The relative toxicity of the synthesized compounds (47a-e) against normal breast cells was studied by exposing normal breast epithelial cell line MCF-10 to our synthesized compounds in concentration ranges from 1 nM to 1 mM. These cells were likewise exposed to equivalent concentrations of Tamoxifen, Genestein, and Doxyrubicin. […] At concentrations lower than 10^−7 M, these compounds appeared to enhance the viability of cells.

[4] = system: EGF stimulated growth of MCF-7 cells; assay type: cell-based, human
Experimental: (§4) The possible mechanism of action of these compounds was explored by examining the ability of these agents to reverse growth factor stimulated proliferation. The ability of these compounds to attenuate EGF and TGF stimulated growth was tested.
(§5) Both MCF-7 and MDA-MB435 cells contain EGF-R and TGF-R. In an effort to examine the role of EGF-R and TGF-R in the proliferation of MCF-7 and MDA-MB435, these cells were stimulated to growth stimulatory at 50 percent (GS50) values.
(§6) In all cases 10 ml of growth factor was administered at a concentration of 1 ng/ml.

[5] = system: TGF-α stimulated growth of MCF-7 cells; assay: Reversal of TGF-α stimulated growth of MCF-7 cells; assay type: cell-based
Experimental: as §4, §5, §6

[6] = system: EGF stimulated growth of MDA-MB435 cells; assay: Reversal of EGF stimulated growth of MDA-MB435 cells; assay type: cell-based; details: EGF (1 ng/ml) serum and non-serum stimulated growth of MDA-MB435 cells; 10^−9 to 10^−3 M
Experimental: as §4, §5, §6

[7] = system: TGF stimulated growth of MDA-MB 435 cells
Experimental: 4. The possible mechanism of action of these compounds was explored by examining the ability of these agents to reverse growth factor stimulated proliferation. The ability of these compounds to attenuate EGF and TGF stimulated growth was tested.
as §5, §6

[8] = system: Normal human mammary epithelial (HME) cells stimulated by EGF; details: read-out: concentration at which cell growth is inhibited by 50% (IC50); cited from earlier work
[9] = Homo sapiens, MCF7, read-out: LC50

CC(C)c1ccc(/C=C/C(=O)C23CC4CC(CC(C4)C2)C3)cc1 [Compound 43f]
decrease of cell viability [1]: 20% | effect on cell viability (in words) ([2]; MDA-MB435 cells): altered cell viability only at much higher concentrations than required for MCF-7 cells

O=C(/C=C/c1ccccn1)C12CC3CC(CC(C3)C1)C2 [Compound 47a]
% cell viability [3]: 103% | IC50 ([4]; EGF-non serum stimulated growth of MCF-7 cells, read-out: IC50, reversal of stimulated growth back to control values): 50 µM | concentration reversing stimulated growth back to control values ([4]; EGF-serum stimulated growth of MCF-7 cells): 10 µM | CC50 ([5]; MCF-7, TGF 1 ng/ml, non-serum stimulated, reversal value, read-out: LC50 Data for Administered Drug, Non-Serum Stimulated): 50 µM | reversal of stimulated growth (in words) ([5]; TGF-α serum and non-serum stimulated growth of MCF-7 cells, 10^−9 to 10^−3 M): neither TGF-α serum stimulated nor non-serum stimulated growth of MCF-7 cells significantly reversed | reversal of stimulated growth (in words) [6]: Neither EGF (1 ng/ml) serum nor non-serum stimulated growth of MDA-MB435 cells was reversed | concentration reversing stimulated growth back to control values ([7]; TGF (1 ng/ml) non-serum stimulated growth of MDA-MB 435 cells): 10 µM | concentration reversing stimulated growth back to control values ([7]; TGF (1 ng/ml) serum stimulated growth of MDA-MB 435 cells): 50 µM

O=C(/C=C/c1cccnc1)C12CC3CC(CC(C3)C1)C2 [Compound 47b]
CC50 [2]: 5 µM | % cell viability [3]: 124%

O=C(/C=C/c1ccncc1)C12CC3CC(CC(C3)C1)C2 [Compound 47c]
% cell viability [3]: 102%

Cc1cccc(/C=C/C(=O)C23CC4CC(CC(C4)C2)C3)n1 [Compound 47d]
% cell viability [3]: 94%

O=C(/C=C/c1ccnc2ccccc12)C12CC3CC(CC(C3)C1)C2 [Compound 47e]
CC50 [1]: 50 µM | LC50 increase over tamoxifen ([1]; MCF-7 cells, versus tamoxifen): 10 fold | % cell viability [3]: 98%

COc1cccc2c1C(=O)c1c(O)c3c(c(O)c1C2=O)C[C@@](O)(C(=O)CO)C[C@@H]3O[C@H]1C[C@H](N)[C@H](O)[C@H](C)O1 [Doxyrubicin]
CC50 [1, 9]: 500 µM

O=c1c(-c2ccc(O)cc2)coc2cc(O)cc(O)c12 [Genestein, Genistein]
CC50 ([2]; Homo sapiens, MDA-MB-435, read-out: LC50): 5000 µM | LC50 (in words) ([2]; MDA-MB435 cells, in the concentration range measured (1 mM to 1 nM)): no LC50 was obtained | IC50 [8]: 1 µM

CC/C(=C(\c1ccccc1)c1ccc(OCCN(C)C)cc1)c1ccccc1 [Tamoxifen]
CC50 [1, 9]: 500 µM | effect on cell viability (in words) ([2]; MDA-MB435 cells): ineffective at lower concentrations
